Experimental data published in patent US5534533A, “Carboxylate derivatives exhibiting phospholipase A2 inhibitory activity” (Shionogi & Co., Ltd., priority 1993, dated 1996).
Structures can show the parent of a compound that is named as a salt.

Assays:
Human secretory PLA2 = biological target: T1, Human secretory PLA2 (Homo sapiens, UniProt P14555); test: Secretory PLA2 inhibitory activity (diheptanoyl thio PC substrate, absorbance at 405 nm); type: biochemical; settings: diheptanoyl thio PC 1 mM, Triton X100 0.3 mM, pH 7.3, CaCl2 10 mM, 30 minutes, read-out: s-PLA2 Inhibition IC50
T1 sequence (P14555 21-144): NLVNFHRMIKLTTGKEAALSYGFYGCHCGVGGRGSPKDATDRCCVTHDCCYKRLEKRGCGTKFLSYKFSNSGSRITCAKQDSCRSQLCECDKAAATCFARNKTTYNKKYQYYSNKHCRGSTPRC
Protocol: Secretory PLA2 activity was assayed according to the method described in Penynolds L. J., Hughes L. L., Dennis E. A. et al. Anal. Biochem. 201,190-197 (1992).
Diheptanoyl thiophosphatidylcholine which was prepared according to the procedure described in the literature was used as a substrate. Human secretory PLA2 was used as an enzyme. The diheptanoyl thio PC (1 mM) was reacted with the human secretory PLA2 in the presence of Triton X100 (0.3 mM) and 5,5'-dithiobis-(2-nitrobenzoic acid) (125 μM) in Tris buffer (25 mM, pH 7.3), CaCl2 (10 mM), KCI (100 mM), bovine serum albumin (1.0 mg/ml), and then the change in absorbance at 405 nm at the time of 30 minutes after the reaction was assayed.
Inhibitory activity (%) was estimated by the formula: [(the change in absorbance with the inhibitor and PLA2 ·the change in absorbance with the inhibitor and without PLA2)/(the change in absorbance without the inhibitor and with PLA2 ·the change in absorbance without the inhibitor and PLA2)]×100.
IC50 value (μM) was calculated from graph showing inhibitory values on the vertical axis and log of concentrations of the inhibitor on the horizontal axis.

[1] = biological target: T2, intracellular PLA2 (cytosolic PLA2, cPLA2) (Homo sapiens, UniProt P47712); test: Intracellular PLA2 (cPLA2) inhibitory activity (14C-arachidonyl phosphatidylcholine substrate); type: biochemical; settings: 2 μM radiolabelled phosphatidylcholine, 1 μM dioleoylglycerol, 1 mM CaCl2, pH 7.4; read-out: c-PLA2 Inhibition IC50
T2 sequence (P47712 1-749): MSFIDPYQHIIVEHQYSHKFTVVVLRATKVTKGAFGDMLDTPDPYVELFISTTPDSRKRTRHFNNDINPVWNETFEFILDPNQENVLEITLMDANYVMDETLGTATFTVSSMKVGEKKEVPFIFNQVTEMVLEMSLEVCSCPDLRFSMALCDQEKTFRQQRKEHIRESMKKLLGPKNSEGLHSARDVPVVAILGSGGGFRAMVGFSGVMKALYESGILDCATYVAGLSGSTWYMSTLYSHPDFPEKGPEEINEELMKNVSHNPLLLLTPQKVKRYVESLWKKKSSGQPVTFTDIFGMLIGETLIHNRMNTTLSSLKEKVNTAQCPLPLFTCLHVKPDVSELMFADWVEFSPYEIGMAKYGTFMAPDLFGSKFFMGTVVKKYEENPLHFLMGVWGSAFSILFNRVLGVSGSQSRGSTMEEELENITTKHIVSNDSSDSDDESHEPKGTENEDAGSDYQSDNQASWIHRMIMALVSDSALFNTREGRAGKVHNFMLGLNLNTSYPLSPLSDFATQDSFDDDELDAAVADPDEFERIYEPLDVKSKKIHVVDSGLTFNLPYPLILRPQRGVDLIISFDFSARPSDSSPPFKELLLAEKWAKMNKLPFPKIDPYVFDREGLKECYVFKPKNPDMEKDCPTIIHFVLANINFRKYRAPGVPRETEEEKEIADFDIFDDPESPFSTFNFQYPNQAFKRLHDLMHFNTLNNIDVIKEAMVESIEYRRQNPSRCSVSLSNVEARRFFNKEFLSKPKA
Protocol: cPLA2 activity was assayed according to the method described in R. M. Kramer, E. F. Roberts, J. Manetta and J. E. Putnam, J. Biol. Chem., 268 (8), 5268-5272 (1991). Briefly, intracellular PLA2 activity was assayed using supersonic treated […] which contain 1-palmitoyl-2-[^14 C]arachidonyl-sn-glycero-3-phosphocholine and sn-1, 2-dioleoylglycerol at a molar ratio of 2:1. This test mixture contained 1 mM CaCl2, 2 mM dithiothreitol, 150 mM NaCl, 50 mM Hepes, pH 7.4 and 0.1 mg/ml BSA. A substrate is a 2 μM radioisotope labelled phosphatidylcholine ribosome containing 1 μM dioleoylglycerol. IC50 value is calculating in the same manner as in calculating it for secretory PLA2 inhibitory activity.

| Compound | IC50 (Human secretory PLA2) | IC50 [1] |
| --- | --- | --- |
| COc1c(C)c(OCCCOc2ccc3ccccc3c2)c(C)c(C)c1C(=O)O [Example 18, 2-Methoxy-3,5,6-trimethyl-4-[3-(2-naphthyloxy)-propyloxy]benzoic acid] | > 50 µM | 19 µM |
| COc1c(C)c(OC(=O)c2c(C)c(C)c(OCCCOc3ccc(Cl)cc3Cl)c(C)c2OC)c(C)c(C)c1C(=O)O [Example 24, 4-{4-[3-(2,4-Dichlorophenoxy)propoxy]-2-methoxy-3,5,6-trimethylbenzoyloxy}-2-methoxy-3,5,6-trimethylbenzoic Acid] | 12 µM | 2.8 µM |
| COc1c(C)c(OC(=O)c2c(C)c(C)c(OCCCNc3ccc(C(F)(F)F)cc3)c(C)c2OC)c(C)c(C)c1C(=O)O [Example 22, 4-[4-[3-(4-Trifluoromethylphenylamino)propyloxy]-2-methoxy-3,5,6-trimethylphenylcarboxy]-2-methoxy-3,5,6 trimethylbenzoic acid hydrochloride] | 42 µM | 4.3 µM |
| COc1c(C)c(OC(=O)c2c(C)c(C)c(OCCCOc3ccc(C(=O)O)cc3)c(C)c2OC)c(C)c(C)c1C(=O)O [Example 32, 4-{4-[3-(4-Carboxyphenoxy)propoxy]-2-methoxy-3,5,6-trimethylbenzoyloxy}-2-methoxy-3,5,6-trimethylbenzoic Acid] | 10 µM | 38 µM |
| COc1c(C)c(OC(=O)c2c(C)c(C)c(OCCCS(=O)(=O)c3ccc(F)cc3)c(C)c2OC)c(C)c(C)c1C(=O)O [Example 36, 4-{4-[3-(4-Fluorobenzenesulfonyl)propoxy]-2-methoxy-3,5,6-trimethylbenzoyloxy}-2-methoxy-3,5,6-trimethylbenzoic Acid] | 50 µM | > 50 µM |
| COc1cccc(OC)c1OCCCOc1c(C)c(C)c(C(=O)Oc2c(C)c(C)c(C(=O)O)c(OC)c2C)c(OC)c1C [Example 40, 4-{4-[3-(2,6-Dimethoxyphenoxy)propoxy]-2-methoxy-3,5,6-trimethylbenzoyloxy}-2-methoxy-3,5,6-trimethylbenzoic Acid] | 6.1 µM | 13 µM |
| COc1c(C(C)(C)C)cc(SCCCCCCOc2c(C)c(C)c(C(=O)Oc3c(C)c(C)c(C(=O)O)c(OC)c3C)c(OC)c2C)cc1C(C)(C)C [Example 12, 4-[4-[6-(3,5-Di-tert-butyl-4-methoxyphenylthio)hexyloxy]-2-methoxy-3,5,6-trimethylphenylcarboxy]-2-methoxy-3,5,6-trimethylbenzoic acid] | > 50 µM | 2 µM |
| COc1c(C)c(OC(=O)c2c(C)c(C)c(OCCCOc3cccc(F)c3)c(C)c2OC)c(C)c(C)c1C(=O)O [Example 34, 4-{4-[3-(3-Fluorophenoxy)propoxy]-2-methoxy-3,5,6-trimethylbenzoyloxy}-2-methoxy-3,5,6-trimethylbenzoic Acid] | 50 µM | 9.7 µM |
| COc1c(C)c(OC(=O)c2c(C)c(C)c(OCCCOc3ccccc3F)c(C)c2OC)c(C)c(C)c1C(=O)O [Example 33, 4-{4-[3-(2-Fluorophenoxy)propoxy]-2-methoxy-3,5,6-trimethylbenzoyloxy}-2-methoxy-3,5,6-trimethylbenzoic Acid] | 26 µM | 12 µM |
| COc1c(C)c(OC(=O)c2c(C)c(C)c(OCCCOc3ccc(C(C)=O)cc3)c(C)c2OC)c(C)c(C)c1C(=O)O [Example 31, 4-{4-[3-(4-Acetylphenoxy)propoxy]-2-methoxy-3,5,6-trimethylbenzoyloxy}-2-methoxy-3,5,6-trimethylbenzoic Acid] | 7 µM | 24 µM |
| COc1cc(OCCCOc2c(C)c(C)c(C(=O)Oc3c(C)c(C)c(C(=O)O)c(OC)c3C)c(OC)c2C)c(C(c2ccccc2)c2ccccc2)cc1OC [Example 21, 4-[4-[3-(2-Benzhydryl-4,5-dimethoxyphenoxy)propyloxy]-2-methoxy-3,5,6-trimethylphenylcarboxy]-2-methoxy-3,5,6-trimethylbenzoic acid] | 15 µM | 1.4 µM |
| COc1c(C)c(OC(=O)c2c(C)c(C)c(OCCCCCCOc3ccc(F)cc3)c(C)c2OC)c(C)c(C)c1C(=O)O [Example 4, 4-[4-[6-(4-Fluorophenoxy)hexyloxy]-2-methoxy-3,5,6-trimethylphenylcarboxy]-2-methoxy-3,5,6-trimethylbenzoic acid] | 27 µM | 7.4 µM |
| COc1ccc(OCCCOc2c(C)c(C)c(C(=O)Oc3c(C)c(C)c(C(=O)O)c(OC)c3C)c(OC)c2C)cc1 [Example 17, 4-[4-[3-(4-Methoxyphenoxy)propyloxy]-2-methoxy-3,5,6-trimethylphenylcarboxy]-2-methoxy-3,5,6-trimethylbenzoic acid] | 12 µM | 14 µM |
| COc1c(C(C)(C)C)cc(SCCCCCCOc2c(C)c(C)c(C(=O)O)c(OC)c2C)cc1C(C)(C)C [Example 13, 4-[6-(3,5-Di-tert-butyl-4-methoxyphenylthio)hexyloxy]-2-methoxy-3,5,6-trimethylbenzoic acid] | > 50 µM | 1.9 µM |

Now from value to compound:

| IC50 (Human secretory PLA2) | IC50 [1] | Compound |
| --- | --- | --- |
| 17 µM | 11 µM | COc1c(C)c(OC(=O)c2c(C)c(C)c(OCCCN3CCN(C(c4ccc(F)cc4)c4ccc(F)cc4)CC3)c(C)c2OC)c(C)c(C)c1C(=O)O [Example 68, 4-{4-[3-(Di-4-Fluorophenylmethylpiperazin-1-yl)-propoxy]-2-methoxy-3,5,6-trimethylbenzoyloxy}-2-methoxy-3,5,6-trimethylbenzoic Acid] |
| 14 µM | > 50 µM | COc1c(C)c(OC(=O)c2c(C)c(C)c(OCCCNS(=O)(=O)c3ccc(F)cc3)c(C)c2OC)c(C)c(C)c1C(=O)O [Example 56, 4-{4-[3-(4-Fluorophenyl)sulfonylaminopropoxy]-2-methoxy-3,5,6-trimethylbenzoyloxy}-2-methoxy-3,5,6 trimethylbenzoic Acid] |
| 5.3 µM | 26 µM | COc1c(C)c(OC(=O)c2c(C)c(C)c(OCCCN(C)S(=O)(=O)c3ccc(F)cc3)c(C)c2OC)c(C)c(C)c1C(=O)O [Example 58, 4-{4-[3-Methyl-(4-fluorophenyl)sulfonylaminopropoxy]-2-methoxy-3,5,6-trimethylbenzoyloxy}-2-methoxy-3,5,6-trimethylbenzoic Acid] |
| 7 µM | 5.9 µM | COc1cc(OC)cc(OCCCOc2c(C)c(C)c(C(=O)Oc3c(C)c(C)c(C(=O)O)c(OC)c3C)c(OC)c2C)c1 [Example 41, 4-{4-[3-(3,5-Dimethoxyphenoxy)propoxy]-2-methoxy-3,5,6-trimethylbenzoyloxy}-2-methoxy-3,5,6-trimethylbenzoic Acid] |
| 5.1 µM | 14 µM | COC(=O)c1ccc(OCCCOc2c(C)c(C)c(C(=O)Oc3c(C)c(C)c(C(=O)O)c(OC)c3C)c(OC)c2C)cc1 [Example 43, 4-{4-[3-(4-Methoxycarbonylphenoxy)propoxy]-2-methoxy-3,5,6-trimethylbenzoyloxy}-2-methoxy-3,5,6 trimethylbenzoic Acid] |
| 33 µM | > 50 µM | COc1c(C)c(OC(=O)c2c(C)c(C)c(OCCCNC(=O)c3ccccc3)c(C)c2OC)c(C)c(C)c1C(=O)O [Example 61, 4-[4-(3-Benzoylaminopropoxy)-2-methoxy-3,5,6-trimethylbenzoyloxy}-2-methoxy-3,5,6-trimethylbenzoic Acid] |
